Test results taken from patent publication US11166460B2, “α-amino acrylate microbicide, and preparation method therefor and uses thereof” (priority 2017, dated 2021).
Read-outs that look alike come from different tables or passages of the source.

Key:
[1] = test system: Rhizoctonia cerealis; experiment: Fungicidal activity, fungi growth rate method, RC; type: cell-based; settings: Ceratobasidium cereale; 50 μg/mL; read-out: Fungicidal activity, inhibition, RC
[2] = test system: Alternaria solani; experiment: Fungicidal activity, fungi growth rate method, AS; type: cell-based; settings: Alternaria solani; 50 μg/mL; read-out: Fungicidal activity, inhibition, AS
[3] = test system: Cercospora arachidicola; experiment: Fungicidal activity, fungi growth rate method, CA; type: cell-based; settings: Mycosphaerella arachidis; 50 μg/mL; read-out: Fungicidal activity, inhibition, CA
[4] = test system: tobacco mosaic virus (TMV); experiment: Anti-TMV protective activity (protection mode), live friction inoculation on tobacco seedlings; type: in vivo; settings: Tobacco mosaic virus, read-out: Anti-TMV activity, Protection effect (inhibition)
[5] = test system: tobacco mosaic virus (TMV); experiment: Anti-TMV curative activity (treatment mode), live friction inoculation on tobacco seedlings; type: in vivo; settings: Tobacco mosaic virus, read-out: Anti-TMV activity, Curative effect (inhibition), 100 μg/mL, tobacco seedlings, checked on seventh day
[6] = test system: wheat Gibberella zeae; experiment: microbe, parasite or virus in culture; type: cell-based; settings: Fusarium graminearum
[7] = test system: Physalospora piricola; experiment: Fungicidal activity, fungi growth rate method, PP; type: cell-based; settings: 50 μg/mL; read-out: Fungicidal activity, inhibition, PP
[8] = test system: Pellicularia sasakii; experiment: Fungicidal activity, fungi growth rate method, PS; type: cell-based; settings: 50 μg/mL; read-out: Fungicidal activity, inhibition, PS
[9] = test system: tobacco mosaic virus (TMV); experiment: Anti-TMV inducing activity (induction mode), tobacco seedlings; type: in vivo; settings: Tobacco mosaic virus, read-out: Anti-TMV activity, Induction effect (inhibition), 100 μg/mL, tobacco seedlings
[10] = test system: Sclerotinia sclerotiorum; experiment: microbe, parasite or virus in culture; type: cell-based; settings: Sclerotinia sclerotiorum, 50 μg/mL
[11] = test system: Botrytis cinerea; experiment: Fungicidal activity, fungi growth rate method, BC; type: cell-based; settings: Botrytis cinerea; 50 μg/mL; read-out: Fungicidal activity, inhibition, BC
[12] = test system: tobacco mosaic virus (TMV); experiment: Anti-TMV inactivation activity (inactivation mode), compound mixed with TMV before inoculation of tobacco leaves; type: in vivo; settings: Tobacco mosaic virus, read-out: Anti-TMV activity, Inactivation effect (inhibition)
[13] = test system: Phytophthora infestans (Mont) de Bary; experiment: microbe, parasite or virus in culture; type: cell-based; settings: Phytophthora infestans, read-out: Fungicidal activity, inhibition, PI
[14] = read-out: Fungicidal activity, inhibition, GZ
[15] = read-out: Fungicidal activity (inhibition) against SS: Sclerotinia sclerotiorum
[16] = read-out: Fungicidal activity, inhibition, SS

| SMILES | inhibition at 50 µg/mL [1] | inhibition at 50 µg/mL [2] | inhibition at 50 µg/mL [3] | melting point | inhibition at 100 µg/mL [4] | inhibition at 100 µg/mL [5] | inhibition at 50 µg/mL [6, 14] | inhibition at 50 µg/mL [7] | inhibition at 50 µg/mL [8] | inhibition at 100 µg/mL [9] | inhibition at 50 µg/mL [10, 15] | inhibition at 50 µg/mL [10, 16] | inhibition at 50 µg/mL [11] | inhibition at 100 µg/mL [12] | inhibition at 50 µg/mL [13] | inhibition at 50 µg/mL ([6]; read-out: Fungicidal activity (inhibition) against GZ: wheat Gibberella zeae) |
| --- | --- | --- | --- | --- | --- | --- | --- | --- | --- | --- | --- | --- | --- | --- | --- | --- |
| O=C(NCc1ccc(Br)cc1)/C(=C/c1ccccc1)NC(=O)C1CC1 [Compound 59, N-[(1Z)-2-phenyl-1-[[(4-bromophenylmethyl)amino]carbonyl]ethenyl]cyclopropanecarboxamide] | 24% | 16% | 22% | 187 to 189 °C | 41% | 80% | 16% | 8% | 19% | 26% | 60 to 80% | 75% | 18% | 39% | 10% | – |
| O=C(NCc1ccc(Br)cc1)/C(=C/c1ccccc1)NC(=O)C1CCCCC1 [Compound 60, N-[(1Z)-2-phenyl-1-[[(4-bromophenylmethyl)amino]carbonyl]ethenyl]cyclohexanecarboxamide] | 23% | 21% | 18% | 215 to 216 °C | 28% | 16% | 57% | 12% | 9% | 18% | – | 38% | 18% | 53% | 16% | – |
| O=C(OCc1ccc(Br)cc1)/C(=C/c1ccccc1)NC(=O)c1ccccc1 [Compound 61, N-[(1Z)-2-phenyl-1-[(4-bromophenymethoxyl)carbonyl]ethenyl]benzamide] | 13% | 25% | 12% | 168 to 170 °C | 16% | 0% | 29% | 6% | 9% | 0% | – | 44% | 18% | 13% | 11% | – |
| O=C(N/C(=C\c1ccco1)C(=O)N1CCC(O)(c2ccc(Br)cc2)CC1)C1CCCCC1 [Compound 63, (Z)-N-[1-[[4-(4-bromophenyl)-4-hydroxy-1-piperidinyl]carbonyl]-2-(2-furanyl)ethenyl]cyclohexanecarboxamide] | 21% | 29% | 24% | 121 to 123 °C | 53% | 36% | 57% | 18% | 14% | 9% | – | 44% | 35% | 50% | 21% | – |
| CC(C)(C)OC(=O)N1CCC(c2nc(C(=O)NCC(=O)O)cs2)CC1 [Compound 65, N-[[4-[2-[4-(1-Boc-piperidine)]thiazol]]formyl]ethanoic acid] | 10% | 9% | 10% | 183 to 185 °C | 39% | 0% | 16% | 3% | 9% | 38% | – | 67% | 10% | 40% | 18% | – |
| O=C(O)/C(=C/c1ccccc1)NC(=O)C1CC1 [Compound 67, (Z)-2-cyclopropanoylamino-3-phenylpropenoic acid] | 10% | 20% | 15% | 193 to 195 °C | 78% | 52% | 23% | 3% | 6% | 34% | – | 67% | 19% | 57% | 13% | – |
| O=C(O)/C(=C/c1ccccc1)NC(=O)c1ccc(C(F)(F)F)cc1 [Compound 68, (Z)-2-[4-(trifluoromethyl)benzoylamino]-3-phenylpropenoic acid] | 9% | 13% | 12% | 184 to 186 °C | 37% | 0% | 17% | 7% | 13% | 34% | 60 to 80% | 73% | 20% | 3% | 18% | – |
| O=C(O)/C(=C/c1ccccc1)NC(=O)c1cccs1 [Compound 69, (Z)-2-(2-thiophanoylamino)-3-phenylpropenoic acid] | 10% | 17% | 16% | 221 to 223 °C | 27% | 0% | 19% | 7% | 6% | 45% | 60 to 80% | 78% | 7% | 1% | 17% | – |
| Cc1snnc1/C=C(\NC(=O)c1ccccc1)C(=O)O [Compound 70, (Z)-2-benzoylamino-3-[4-(5-methyl-1,2,3-thiadiazol)]propenoic acid] | 18% | 14% | 24% | 190 to 192 °C | 17% | 37% | 21% | 0% | 14% | 37% | – | 44% | 12% | 3% | 13% | – |
| Cc1nnsc1/C=C(\NC(=O)c1ccccc1)C(=O)O [Compound 71, (Z)-2-benzoylamino-3-[5-(4-methyl-1,2,3-thiadiazol)]propenoic acid] | 18% | 14% | 24% | 215 to 217 °C | 53% | 0% | 86% | 6% | 9% | 27% | – | 47% | 12% | 67% | 21% | 86% |
